Laboratory results from ChEMBL document CHEMBL5537143, “Synthesis and antimicrobial properties of guanidine-functionalized labdane type diterpenoids” (Eur J Med Chem, 2024).
Converted amounts (≈) assume the structure as drawn.

Key:
[1] = Acute toxicity in zebrafish embryo assessed as mortality rate at 8 microg/ml preincubated with compound for 24 hrs and measured after 48 to 72 hrs post fertilization; design: species or system Danio rerio; conditions: in vivo, at 8 µg/mL
[2] = test system: Staphylococcus epidermidis; experiment: Antimicrobial activity against Staphylococcus epidermidis ATCC 35984 assessed as inhibition of microbial growth incubated for 24 hrs by broth-microdilution assay; format: functional; conditions: Staphylococcus epidermidis, ATCC 35984, read-out: MIC
Staphylococcus aureus [3] = experiment: Antimicrobial activity against Staphylococcus aureus ATCC 43300 assessed as inhibition of microbial growth incubated for 24 hrs by broth-microdilution assay; format: functional; conditions: Staphylococcus aureus, ATCC 43300, read-out: MIC100
Candida albicans [4] = experiment: Antifungal activity against Candida albicans ATCC 10231 assessed as reduction in fungal growth incubated for 48 hrs by CLSI based analysis; format: functional; conditions: read-out: MIC100
[5] = Acute toxicity in zebrafish embryo assessed as mortality rate at 16 microg/ml preincubated with compound for 24 hrs and measured after 24 hrs post fertilization; design: species or system Danio rerio; conditions: in vivo, at 16 µg/mL
Pseudomonas aeruginosa [6] = experiment: Antimicrobial activity against Pseudomonas aeruginosa ATCC 27853 assessed as inhibition of microbial growth incubated for 24 hrs by broth-microdilution assay; format: functional
Staphylococcus aureus [7] = experiment: Synergistic antimicrobial activity against methicillin resistant Staphylococcus aureus 43300 assessed as fractional inhibitory concentration index incubated for 24 hrs in presence of Oxacillin by checkerboard assay; format: functional
Klebsiella pneumoniae [8] = experiment: Synergistic antimicrobial activity against Klebsiella pneumoniae ATCC BAA1705 assessed as inhibition of microbial growth incubated for 24 hrs in presence of Imipenem by checkerboard assay; format: functional; conditions: read-out: MIC100
[9] = Acute toxicity in zebrafish embryo assessed as mortality rate at 4 microg/ml preincubated with compound for 24 hrs and measured after 48 to 72 hrs post fertilization; design: species or system Danio rerio; conditions: in vivo, at 4 µg/mL
Klebsiella pneumoniae [10] = experiment: Antimicrobial activity against Carbapenem-resistant Klebsiella pneumoniae ATCC BAA1705 assessed as inhibition of microbial growth incubated for 24 hrs by broth-microdilution assay; format: functional
Staphylococcus aureus [11] = experiment: Antimicrobial activity against Staphylococcus aureus ATCC 29213 assessed as inhibition of microbial growth incubated for 24 hrs by broth-microdilution assay; format: functional; conditions: Staphylococcus aureus, ATCC 29213, read-out: MIC100
Klebsiella pneumoniae [12] = experiment: Antimicrobial activity against Klebsiella pneumoniae ATCC 13883 assessed as inhibition of microbial growth incubated for 24 hrs by broth-microdilution assay; format: functional; conditions: read-out: MIC
Klebsiella pneumoniae [13] = experiment: Synergistic antimicrobial activity against Klebsiella pneumoniae ATCC BAA1705 assessed as fractional inhibitory concentration index incubated for 24 hrs in presence of Imipenem by checkerboard assay; format: functional
Candida albicans [14] = experiment: Synergistic antifungal activity against Candida albicans ATCC 10231 assessed as reduction in fungal growth incubated for 48 hrs in presence of Voriconazole by CLSI based analysis; format: functional; conditions: read-out: MIC100
Staphylococcus aureus [15] = experiment: Synergistic antimicrobial activity against methicillin resistant Staphylococcus aureus 43300 assessed as inhibition of microbial growth incubated for 24 hrs in presence of Oxacillin by checkerboard assay; format: functional; conditions: read-out: MIC100
Klebsiella pneumoniae [16] = experiment: Antimicrobial activity against Carbapenem -resistant Klebsiella pneumoniae ATCC 13883 assessed as inhibition of microbial growth incubated for 24 hrs by broth-microdilution assay; format: functional
[17] = Acute toxicity in zebrafish embryo preincubated with compound for 24 hrs and measured after 24 hrs post fertilization; design: species or system Danio rerio; conditions: in vivo
[18] = Acute toxicity in zebrafish embryo assessed as mortality rate at 2 microg/ml preincubated with compound for 24 hrs and measured after 48 to 72 hrs post fertilization; design: species or system Danio rerio; conditions: in vivo, at 2 µg/mL
[19] = Acute toxicity in zebrafish embryo assessed as mortality rate at 32 microg/ml preincubated with compound for 24 hrs and measured after 24 hrs post fertilization; design: species or system Danio rerio; conditions: in vivo, at 32 µg/mL
Staphylococcus aureus [20] = experiment: Synergistic antimicrobial activity against methicillin resistant Staphylococcus aureus 43300 assessed as Oxacillin MIC incubated for 24 hrs by checkerboard assay; format: functional; conditions: read-out: MIC100
Klebsiella pneumoniae [21] = experiment: Antimicrobial activity against Klebsiella pneumoniae ATCC BAA1705 assessed as inhibition of microbial growth incubated for 24 hrs by broth-microdilution assay; format: functional; conditions: read-out: MIC
Klebsiella pneumoniae [22] = experiment: Synergistic antimicrobial activity against Klebsiella pneumoniae ATCC BAA1705 assessed as Imipenem MIC incubated for 24 hrs by checkerboard assay; format: functional; conditions: read-out: MIC100
[23] = test system: Staphylococcus epidermidis; experiment: Antimicrobial activity against Staphylococcus epidermidis ATCC 12228 assessed as inhibition of microbial growth incubated for 24 hrs by broth-microdilution assay; format: functional; conditions: Staphylococcus epidermidis, ATCC 12228, read-out: MIC
Pseudomonas aeruginosa [24] = experiment: Antimicrobial activity against Pseudomonas aeruginosa PAO1 assessed as inhibition of microbial growth at 128 microg/ml incubated for 24 hrs by broth-microdilution assay relative to control; format: functional
Candida albicans [25] = experiment: Synergistic antifungal activity against Candida albicans ATCC 10231 assessed as fractional inhibitory concentration index incubated for 48 hrs in presence of Voriconazole by CLSI based analysis; format: functional
Pseudomonas aeruginosa [26] = experiment: Antimicrobial activity against Pseudomonas aeruginosa 27853 assessed as inhibition of microbial growth at 128 microg/ml incubated for 24 hrs by broth-microdilution assay relative to control; format: functional
[27] = Acute toxicity in zebrafish embryo preincubated with compound for 24 hrs and measured after 48 to 96 hrs post fertilization; design: species or system Danio rerio; conditions: in vivo
Pseudomonas aeruginosa [28] = experiment: Antimicrobial activity against Pseudomonas aeruginosa PAO1 assessed as inhibition of microbial growth incubated for 24 hrs by broth-microdilution assay; format: functional
Candida albicans [29] = experiment: Synergistic antifungal activity against Candida albicans ATCC 10231 assessed as Voriconazole MIC incubated for 48 hrs by CLSI based analysis; format: functional; conditions: read-out: MIC100
[30] = Acute toxicity in zebrafish embryo assessed as mortality rate at 16 microg/ml preincubated with compound for 24 hrs and measured after 48 to 72 hrs post fertilization; design: species or system Danio rerio; conditions: in vivo, at 16 µg/mL
Staphylococcus aureus [31] = experiment: Antimicrobial activity against Staphylococcus aureus 29213 assessed as inhibition of microbial growth incubated for 24 hrs by broth-microdilution assay; format: functional
Staphylococcus aureus [32] = experiment: Antimicrobial activity against methicillin resistant Staphylococcus aureus 43300 assessed as inhibition of microbial growth incubated for 24 hrs by broth-microdilution assay; format: functional; conditions: read-out: MIC
[33] = Acute toxicity in zebrafish embryo assessed as mortality rate at 32 microg/ml preincubated with compound for 24 hrs and measured after 48 to 72 hrs post fertilization; design: species or system Danio rerio; conditions: in vivo, at 32 µg/mL
Candida albicans [34] = experiment: Antifungal activity against Candida albicans ATCC 90028 assessed as reduction in fungal growth incubated for 48 hrs by CLSI based analysis; format: functional; conditions: read-out: MIC
[35] = Acute toxicity in zebrafish embryo assessed as mortality rate at 0.7 microg/ml preincubated with compound for 24 hrs and measured after 48 to 72 hrs post fertilization; design: species or system Danio rerio; conditions: in vivo, at 0.7 µg/mL
[36] = Acute toxicity in zebrafish embryo assessed as mortality rate at 4 microg/ml preincubated with compound for 24 hrs and measured after 24 hrs post fertilization; design: species or system Danio rerio; conditions: in vivo, at 4 µg/mL
[37] = Acute toxicity in zebrafish embryo assessed as mortality rate at 16 microg/ml preincubated with compound for 24 hrs and measured after 96 hrs post fertilization; design: species or system Danio rerio; conditions: in vivo, at 16 µg/mL
[38] = Acute toxicity in zebrafish embryo assessed as mortality rate at 8 microg/ml preincubated with compound for 24 hrs and measured after 96 hrs post fertilization; design: species or system Danio rerio; conditions: in vivo, at 8 µg/mL
[39] = Acute toxicity in zebrafish embryo preincubated with compound for 24 hrs and measured after 48 to 72 hrs post fertilization; design: species or system Danio rerio; conditions: in vivo
[40] = Acute toxicity in zebrafish embryo assessed as mortality rate at 32 microg/ml preincubated with compound for 24 hrs and measured after 96 hrs post fertilization; design: species or system Danio rerio; conditions: in vivo, at 32 µg/mL
[41] = Acute toxicity in zebrafish embryo preincubated with compound for 24 hrs and measured after 96 hrs post fertilization; design: species or system Danio rerio; conditions: in vivo
[42] = Acute toxicity in zebrafish embryo assessed as mortality rate at 2 microg/ml preincubated with compound for 24 hrs and measured after 96 hrs post fertilization; design: species or system Danio rerio; conditions: in vivo, at 2 µg/mL
[43] = Acute toxicity in zebrafish embryo assessed as mortality rate at 8 microg/ml preincubated with compound for 24 hrs and measured after 24 hrs post fertilization; design: species or system Danio rerio; conditions: in vivo, at 8 µg/mL
[44] = Acute toxicity in zebrafish embryo assessed as mortality rate at 0.7 microg/ml preincubated with compound for 24 hrs and measured after 96 hrs post fertilization; design: species or system Danio rerio; conditions: in vivo, at 0.7 µg/mL
[45] = Acute toxicity in zebrafish embryo assessed as mortality rate at 4 microg/ml preincubated with compound for 24 hrs and measured after 96 hrs post fertilization; design: species or system Danio rerio; conditions: in vivo, at 4 µg/mL

Compound `CC1(C)CCC[C@]2(C)[C@H]3CC[C@@](C)(CC(=O)NC(=N)N)O[C@]3(C)CC[C@@H]12` has a mortality at 24 h, 8 microg/ml [1] of 0%, an MIC [2] of 4 µg/mL and an MIC (Staphylococcus aureus [3]) of 8 µg/mL. The MIC (Candida albicans [4]) was 16 µg/mL (≈ 44 µM), the mortality at 24 h, 16 microg/ml [5] was 10% and the MIC50 (Pseudomonas aeruginosa [6]; Pseudomonas aeruginosa, ATCC 27853) was 128 µg/mL. For the same compound, the “fractional inhibitory concentration index (FICI)” value (Staphylococcus aureus [7]) was 0.55, the MIC (Klebsiella pneumoniae [8]) was 16 µg/mL and the mortality at 4 microg/ml [9] was 0%. For the same compound, the MIC (Klebsiella pneumoniae [10]) was 32 µg/mL, the MIC (Staphylococcus aureus [11]) was 8 µg/mL and the MIC (Klebsiella pneumoniae [12]) was 16 µg/mL. For the same compound, the “fractional inhibitory concentration index (FICI)” value (Klebsiella pneumoniae [13]) was 0.6, the MIC (Candida albicans [14]) was 2 µg/mL and the MIC (Staphylococcus aureus [15]) was 2 µg/mL. The MIC (Klebsiella pneumoniae [16]) was 32 µg/mL, the LC50 at 24 h [17] was 93.4 µg/mL (≈ 257 µM) and the mortality at 2 microg/ml [18] was 0%. The mortality at 24 h, 32 microg/ml [19] was 5%, the MIC (Staphylococcus aureus [20]) was 0.5 µg/mL and the MIC (Klebsiella pneumoniae [21]) was 32 µg/mL. It also gave an MIC (Klebsiella pneumoniae [22]) of 2 µg/mL, an MIC [23] of 4 µg/mL and an inhibition at 128 µg/mL (Pseudomonas aeruginosa [24]) of 65%. For the same compound, the “fractional inhibitory concentration index (FICI)” value (Candida albicans [25]) was 0.129, the inhibition at 128 µg/mL (Pseudomonas aeruginosa [26]) was 50% and the LC50 [27] was 11.5 µg/mL (≈ 31.6 µM). For the same compound, the MIC65 (Pseudomonas aeruginosa [28]) was 128 µg/mL, the MIC (Candida albicans [29]) was 0.125 µg/mL and the mortality at 16 microg/ml [30] was 100%. For the same compound, the MIC (Staphylococcus aureus [31]) was 4 µg/mL, the MIC (Staphylococcus aureus [32]) was 4 µg/mL and the mortality at 24 h, 32 microg/ml [33] was 100%. The MIC (Candida albicans [34]) was 16 µg/mL (≈ 44 µM) and the mortality at 24 h, 0.7 microg/ml [35] was 5%.
`CC1(C)CCC[C@]2(C)[C@H]3CC[C@](C)(CC(=O)NC(=N)N)O[C@]3(C)CC[C@@H]12` showed a mortality at 24 h, 4 microg/ml [36] of 0%, a mortality at 24 h, 8 microg/ml [1] of 35% and an MIC [2] of 4 µg/mL. It also gave an MIC (Staphylococcus aureus [3]) of 8 µg/mL, a mortality at 96 h, 16 microg/ml [37] of 100% and a mortality at 96 h, 8 microg/ml [38] of 95%. For the same compound, the MIC (Candida albicans [4]) was 16 µg/mL (≈ 44 µM), the mortality at 24 h, 16 microg/ml [5] was 75% and the MIC70 (Pseudomonas aeruginosa [6]) was 128 µg/mL. For the same compound, the LC50 at 24 h [39] was 8.1 µg/mL (≈ 22.3 µM), the “fractional inhibitory concentration index (FICI)” value (Staphylococcus aureus [7]) was 0.512 and the MIC (Klebsiella pneumoniae [8]) was 16 µg/mL. It also gave a mortality at 96 h, 32 microg/ml [40] of 100%, a mortality at 4 microg/ml [9] of 0% and an MIC (Klebsiella pneumoniae [10]) of 32 µg/mL. For the same compound, the MIC (Staphylococcus aureus [11]) was 8 µg/mL, the LC50 at 96 h [41] was 6 µg/mL (≈ 16.5 µM) and the MIC (Klebsiella pneumoniae [12]) was 16 µg/mL. The “fractional inhibitory concentration index (FICI)” value (Klebsiella pneumoniae [13]) was 0.6, the MIC (Candida albicans [14]) was 4 µg/mL and the MIC (Staphylococcus aureus [15]) was 4 µg/mL. The MIC (Klebsiella pneumoniae [16]) was 32 µg/mL, the LC50 at 24 h [17] was 14 µg/mL (≈ 38.5 µM) and the mortality at 96 h, 2 microg/ml [42] was 0%. For the same compound, the mortality at 24 h, 32 microg/ml [19] was 95%, the MIC (Staphylococcus aureus [20]) was 0.125 µg/mL and the MIC (Klebsiella pneumoniae [21]) was 32 µg/mL. It also gave a mortality at 24 h, 8 microg/ml [43] of 15%, an MIC (Klebsiella pneumoniae [22]) of 2 µg/mL and an MIC [23] of 4 µg/mL. The inhibition at 128 µg/mL (Pseudomonas aeruginosa [24]) was 75%, the “fractional inhibitory concentration index (FICI)” value (Candida albicans [25]) was 0.254 and the inhibition at 128 µg/mL (Pseudomonas aeruginosa [26]) was 70%. It also gave an MIC75 (Pseudomonas aeruginosa [28]) of 128 µg/mL, an MIC (Candida albicans [29]) of 0.125 µg/mL and a mortality at 16 microg/ml [30] of 100%. The mortality at 96 h, 0.7 microg/ml [44] was 0%, the MIC (Staphylococcus aureus [31]) was 4 µg/mL and the MIC (Staphylococcus aureus [32]) was 4 µg/mL. For the same compound, the mortality at 96 h, 4 microg/ml [45] was 5% and the MIC (Candida albicans [34]) was 16 µg/mL (≈ 44 µM).
